In US20220153732A1, “PROTEIN SECRETION INHIBITORS” (KEZAR LIFE SCIENCES, priority 2019, published 2022) one finds IC50 and EC50 data, which are given here for 20 compounds.

Where two headings read alike, the source gives them in different places.

The EC50 is the concentration needed to bring the measured effect to its halfway point.

Type in all cases: cell-based
Test [1] deals with IL-2-FL/Gaussia Luciferase. The test is described as follows: Dox Induced IL2-FL-Gluc Assay. To be noted: 293FRT/TO cells, read-out: 24 hr Dox Inducible IL2FLGIuc 293FRT/TO: Mean IC50. The essentials: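 Compounds were added together with doxycycline in DMSO/media and incubated at 37° C., 5% CO2. The cells were a stably selected line carrying IL-2-FL/Gaussia luciferase under T-REx inducible control. Structures drawn without stereochemistry were tested as stereoisomer mixtures.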

Test [2] relates to PD1-ss+10aa/Gaussia Luciferase. Description: Dox-Induced PD1-ss-Gluc Assay. The settings on record: 293FRT/TO cells, read-out: 24 hr Dox Inducible PD1ssGluc 293FRT/TO: Mean IC50. The essentials: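 Compounds, diluted in DMSO/media with doxycycline, were added to cells plated a day earlier and kept at 37° C under 5% CO2. The cells stably express a Gaussia luciferase construct fused to PD1-ss+10aa, induced via the T-REx system. Unassigned stereochemistry means mixture data.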

In test [3] the test system is HER3-ss+4aa/Gaussia Luciferase. The test is described as follows: Dox-Induced Her3-ss-Gluc Assay. The settings on record: 293FRT/TO cells, read-out: 24 hr Dox Inducible Her3(ss + 4)Gluc 293FRT/TO: Mean IC50. The essentials: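 Compounds, diluted in DMSO/media containing doxycycline, were incubated at 37° C., 5% CO2 with cells seeded one day earlier. The cells stably express HER3-ss+4aa/Gaussia luciferase under T-REx control. Where no stereochemistry is shown, data refer to the mixture of stereoisomers.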

Test [4] has as its system TNFα-FL/Gaussia Luciferase. The test is described as follows: Dox Induced TNFα-FL-Gluc Assay. To be noted: 293FRT/TO cells, read-out: 24 hr Dox Inducible TNFaFLGluc 293FRT/TO: Mean IC50. The essentials:
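Compounds were added in doxycycline-containing DMSO/media to cells plated the previous day and incubated at 37° C under 5% CO2. These cells stably express a TNFα-FL/Gaussia luciferase cDNA whose expression is under T-REx (Dox-inducible) control, selected with Hygromycin and Blasticidin.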

The test system of test [5] is human multiple myeloma cell line U266B1. Description: U266 Cell Viability Assay. To be noted: U-266, 48 hr, U266B1 cells, Celltiter-Glo, read-out: 48 hr U266 Viability Celltiter-Glo: Mean EC50. A digest of the protocol: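 Viability measured by CellTiter-Glo luciferase signal after 48 h compound exposure (37 °C, 5% CO2) of U266B1 cells in 384-well format. Where stereochemistry is not shown, data refer to the stereoisomer mixture.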
In general terms: Cellular ATP, detected with luciferase, serves as a proxy for viable cell number.

For test [6], the system named is human multiple myeloma cell line NCI-H929. The test is described as follows: H929 Cell Viability Assay. The settings on record: 48 hr, NCI-H929 cells, Celltiter-Glo, read-out: 48 hr H929 Viability Celltiter-Glo: Mean EC50. The procedure: Plates were incubated at 37° C., 5% CO2 for 48 hours. After 48 hours, Celltiter-Glo® (Promega) was added to each well and luciferase signal was quantified using Tecan Infinite M1000 Pro for cell viability determination.
For chemical structures that include one or more stereoisomers, but are illustrated without indicating stereochemistry, the assay data refers to a mixture of stereoisomers.

Where [7] appears, read: 24 hr doxycycline induction, Gaussia luciferase signal.

For the compound `CC(C)OC(C)(C)c1csc(NC(=O)c2cccn2Cc2cccnc2)n1` [Compound A87, N-(4-(2-isopropoxypropan-2-yl)thiazol-2-yl)-1-(pyridin-3-ylmethyl)-1H-pyrrole-2-carboxamide], the IC50 in test [1] (setting [7]) is 8.59 µM; in test [2] (setting [7]) it was 8.13 µM; in test [3] (setting [7]), more than 25 µM; in test [4] (setting [7]), more than 25 µM. Also, the concentration giving a half-maximal response (EC50) in test [5] and in test [6] was more than 25 µM throughout.
As to `CN(C)c1ccc(/C=C/c2csc(NC(=O)c3cccn3Cc3ccncc3)n2)cc1` [Compound A229], the IC50 in test [1] (setting [7]) was 1.05 µM; in test [2] (setting [7]), 0.066 µM; in test [3] (setting [7]), 0.568 µM; in test [4] (setting [7]), 4.58 µM. For the same compound, the results for the EC50 in test [5] and in test [6] were more than 25 µM and 24.9 µM, respectively.
Regarding `CC(C)(C)[C@H]1C[C@@H]1NC(=O)c1cccn1Cc1ccncc1` [Compound B23, N-((1S,2R)-2-(tert-butyl)cyclopropyl)-1-(pyridin-4-ylmethyl)-1H-pyrrole-2-carboxamide], the IC50 in test [1] (24 hr, doxycycline-induced) is more than 25 µM; in test [2] (24 hr, doxycycline-induced), more than 25 µM; in test [3] (24 hr, doxycycline-induced), more than 25 µM; in test [4] (24 hr, doxycycline-induced), more than 25 µM. In addition, the EC50 in test [5] and in test [6] was more than 25 µM each time.
Take `Cc1cccc2sc(NC(=O)c3cccn3Cc3ccncc3)nc12` [Compound A46]: the IC50 in test [1] (setting [7]) stood at 0.89 µM; in test [2] (setting [7]), 1.07 µM; in test [3] (setting [7]), 2.98 µM; in test [4] (setting [7]), 17.8 µM. The EC50 in test [5] and in test [6] was more than 25 µM in each case.
Take `O=C(Nc1nc([C@@H]2CCCCN2c2ccccc2)cs1)c1cccn1Cc1ccncc1` [Compound A332]: the IC50 in test [1] (24 hr, doxycycline-induced) was 0.082 µM; in test [2] (24 hr, doxycycline-induced), 0.064 µM; in test [3] (24 hr, doxycycline-induced) it was 0.097 µM; in test [4] (24 hr, doxycycline-induced), 0.516 µM. Further, the EC50 in test [5] is more than 25 µM; in test [6] it was 4.29 µM.
On to `CC(C)c1coc(NC(=O)c2cccn2Cc2ccncc2)n1` [Compound B5, N-(4-isopropyloxazol-2-yl)-1-(pyridin-4-ylmethyl)-1H-pyrrole-2-carboxamide], for which the IC50 is 10.6 µM in test [1] (24 hr, doxycycline-induced); 3.24 µM in test [2] (24 hr, doxycycline-induced); 12.6 µM in test [3] (24 hr, doxycycline-induced); more than 25 µM in test [4] (24 hr, doxycycline-induced). The EC50 in test [5] and in test [6] was more than 25 µM each time.
`CN(C(=O)c1cccn1Cc1ccncc1)c1nc2ccccc2s1` [Compound A116]: the IC50 in test [1] (setting [7]), in test [2] (setting [7]), in test [3] (setting [7]) and in test [4] (setting [7]) was more than 25 µM in each case. Moreover, the EC50 in test [5] and in test [6] was more than 25 µM in each case.
`O=C(Nc1nc([C@H]2[C@H](O)CCN2c2ccccc2)cs1)c1cccn1Cc1ccncc1` [Compound A351]: the IC50 is 0.259 µM in test [1] (24 hr, doxycycline-induced); 0.167 µM in test [2] (24 hr, doxycycline-induced); 0.45 µM in test [3] (24 hr, doxycycline-induced); 0.954 µM in test [4] (24 hr, doxycycline-induced). In addition, the EC50 is more than 25 µM in test [5] and 7.5 µM in test [6].
`COc1ccc(N2CC(c3csc(NC(=O)c4cccn4Cc4ccncc4)n3)C2)nc1` [Compound A315]: the IC50 in test [1] (24 hr, doxycycline-induced) stood at 1.42 µM; in test [2] (24 hr, doxycycline-induced), 0.253 µM; in test [3] (24 hr, doxycycline-induced), 0.827 µM; in test [4] (24 hr, doxycycline-induced) it was 8.03 µM. Moreover, the EC50 in test [5] and in test [6] was more than 25 µM in each case.
As for `O=C(Nc1nc(/C=C/C2=CCCCC2)cs1)c1cccn1Cc1ccncc1` [Compound A244, N-(4-(2-(cyclohex-1-en-1-yl)vinyl)thiazol-2-yl)-1-(pyridin-4-ylmethyl)-1H-pyrrole-2-carboxamide], the IC50 in test [1] (setting [7]) came out at 0.648 µM; in test [2] (setting [7]), 0.081 µM; in test [3] (setting [7]), 0.225 µM; in test [4] (setting [7]), 1.43 µM. In addition, the figures for the EC50 in test [5] and in test [6] were 17.4 µM and 17.7 µM, respectively.
As to `O=C(Nc1nc(/C=C/c2ncc(OC3CCCC3)cc2F)cs1)c1cccn1Cc1ccncc1` [Compound A295], the IC50 in test [1] (24 hr, doxycycline-induced) was 0.846 µM; in test [2] (24 hr, doxycycline-induced) it was 0.005 µM; in test [3] (24 hr, doxycycline-induced), 0.692 µM; in test [4] (24 hr, doxycycline-induced) it was 3.56 µM. Also, the EC50 in test [5] was 18.9 µM; in test [6] it was 18.3 µM.
On to `CC(C)(C)c1csc(NC(=O)c2cccn2Cc2ccncc2Cl)n1` [Compound A77, N-(4-(tert-butyl)thiazol-2-yl)-1-((3-chloropyridin-4-yl)methyl)-1H-pyrrole-2-carboxamide], for which the IC50 in test [1] (setting [7]) was 3.1 µM; in test [2] (setting [7]), 3.05 µM; in test [3] (setting [7]), 4.68 µM; in test [4] (setting [7]) it was more than 25 µM. Besides, the EC50 in test [5] was more than 25 µM; in test [6], 25 µM.
`CC(C)OC(C)(C)c1csc(NC(=O)c2cccn2Cc2cc[n+]([O-])cc2)n1` [Compound A85]: the IC50 is more than 25 µM in test [1] (setting [7]), 7.54 µM in test [2] (setting [7]), more than 25 µM in test [3] (setting [7]) and more than 25 µM in test [4] (setting [7]). In addition, the EC50 in test [5] and in test [6] was more than 25 µM in each case.
For `CC(C)OC(C)(C)c1csc(NC(=O)c2cccn2Cc2ccncc2NCc2ccccc2)n1` [Compound A212, 1-((3-(benzylamino)pyridin-4-yl)methyl)-N-(4-(2-isopropoxypropan-2-yl)thiazol-2-yl)-1H-pyrrole-2-carboxamide], the IC50 is 4.57 µM in test [1] (setting [7]), 4.74 µM in test [2] (setting [7]), 4.2 µM in test [3] (setting [7]) and more than 25 µM in test [4] (setting [7]). The EC50 came out at 3.76 µM in test [5] and 2.99 µM in test [6].
Take `O=C(Nc1nc([C@H]2C[C@@H]2c2ccccc2)cs1)c1cccn1Cc1ccncc1` [Compound A194, N-(4-((1S,2S)-2-phenylcyclopropyl)thiazol-2-yl)-1-(pyridin-4-ylmethyl)-1H-pyrrole-2-carboxamide]: the IC50 in test [1] (setting [7]) turned out to be 1.14 µM; in test [2] (setting [7]), 0.28 µM; in test [3] (setting [7]), 0.6 µM; in test [4] (setting [7]), 2.3 µM. Moreover, the EC50 in test [5] was 16 µM; in test [6] it was 6.67 µM.
With `O=C(Nc1nc([C@H]2CCCN2c2ccc3c(c2)OCO3)cs1)c1cccn1Cc1ccncc1` [Compound A359], the IC50 was 0.015 µM in test [1] (24 hr, doxycycline-induced); 0.011 µM in test [2] (24 hr, doxycycline-induced); 0.013 µM in test [3] (24 hr, doxycycline-induced); 0.083 µM in test [4] (24 hr, doxycycline-induced). The results for the EC50 in test [5] and in test [6] were more than 25 µM and 0.382 µM, respectively.
As for `Cc1cc(Cn2cccc2C(=O)Nc2nc(C(C)(C)OC(C)C)cs2)ccn1` [Compound A83, N-(4-(2-isopropoxypropan-2-yl)thiazol-2-yl)-1-((2-methylpyridin-4-yl)methyl)-1H-pyrrole-2-carboxamide], the IC50 in test [1] (setting [7]) was 4.52 µM; in test [2] (setting [7]) it was 5.37 µM; in test [3] (setting [7]), more than 25 µM; in test [4] (setting [7]), more than 25 µM. Moreover, the EC50 in test [5] and in test [6] was more than 25 µM in each case.
Consider `O=C(Nc1nc([C@@H]2CCCN2C(=O)c2ccccc2)cs1)c1cccn1Cc1ccncc1` [Compound A313], for which the IC50 in test [1] (24 hr, doxycycline-induced) was 6.36 µM; in test [2] (24 hr, doxycycline-induced), 3.86 µM; in test [3] (24 hr, doxycycline-induced), 7.9 µM; in test [4] (24 hr, doxycycline-induced), more than 25 µM. Also, the EC50 in test [5] and in test [6] was more than 25 µM throughout.
As for `O=C(Nc1nc([C@H]2CCC[C@@H]2c2ccccc2)cs1)c1cccn1Cc1ccncc1` [Compound A300, N-(4-((1S,2S)-2-phenylcyclopentyl)thiazol-2-yl)-1-(pyridin-4-ylmethyl)-1H-pyrrole-2-carboxamide], the IC50 was determined as 0.45 µM in test [1] (24 hr, doxycycline-induced); 0.328 µM in test [2] (24 hr, doxycycline-induced); 0.589 µM in test [3] (24 hr, doxycycline-induced); 2.42 µM in test [4] (24 hr, doxycycline-induced). For the same compound, the EC50 is more than 25 µM in test [5] and 10.5 µM in test [6].
For the compound `CC(C)(O)c1cnc(NC(=O)c2cccn2Cc2ccncc2)s1` [Compound A89], the IC50 in test [1] (setting [7]) was more than 25 µM; in test [2] (setting [7]), 9.85 µM; in test [3] (setting [7]), more than 25 µM; in test [4] (setting [7]) it was more than 25 µM. Besides, the EC50 in test [5] and in test [6] was more than 25 µM in each case.
